The test system of test [1] is Escherichia coli. In words: Growth inhibition of Escherichia coli ATCC 25922 at 50 uM after 24 hrs by broth microdilution method relative to control. It is filed as functional. As to conditions: ATCC 25922, 24 h, read-out: GI.
The subject of another test is Pseudomonas aeruginosa. Kind of test: Growth inhibition of Pseudomonas aeruginosa ATCC 27853 at 50 uM after 24 hrs by broth microdilution method relative to control. It is filed as functional. As to conditions: ATCC 27853, 24 h, read-out: GI.
The target of test [2] is DNA gyrase subunit B (Staphylococcus aureus) (UniProt P0A0K8). In words: Inhibition of Staphylococcus aureus DNA gyrase B assessed as residual activity at 1 uM preincubated for 10 mins followed by ATP addition measured after 30 mins by purine nucleoside phosphorylase enzyme coupled spectrophotometric method relative to control.
Chain of DNA gyrase subunit B (Staphylococcus aureus) (P0A0K8 2-644 limits assumed): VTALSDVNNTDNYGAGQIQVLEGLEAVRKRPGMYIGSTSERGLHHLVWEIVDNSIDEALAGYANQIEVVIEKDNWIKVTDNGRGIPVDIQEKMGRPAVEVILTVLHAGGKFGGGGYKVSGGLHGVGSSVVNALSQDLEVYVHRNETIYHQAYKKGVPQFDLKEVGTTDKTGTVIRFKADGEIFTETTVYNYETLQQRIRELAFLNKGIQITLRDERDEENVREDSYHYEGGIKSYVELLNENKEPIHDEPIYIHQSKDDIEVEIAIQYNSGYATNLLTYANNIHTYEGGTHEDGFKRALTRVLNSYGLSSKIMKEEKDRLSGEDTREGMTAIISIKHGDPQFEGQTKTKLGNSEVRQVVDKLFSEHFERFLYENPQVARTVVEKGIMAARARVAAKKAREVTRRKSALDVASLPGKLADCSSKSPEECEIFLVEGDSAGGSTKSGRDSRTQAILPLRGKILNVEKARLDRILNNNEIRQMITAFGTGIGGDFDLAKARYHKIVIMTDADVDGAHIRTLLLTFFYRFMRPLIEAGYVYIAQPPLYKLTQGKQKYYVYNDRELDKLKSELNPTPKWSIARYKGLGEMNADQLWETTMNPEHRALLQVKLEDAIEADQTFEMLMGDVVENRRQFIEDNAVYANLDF
Test [3] deals with DNA gyrase subunit B (Escherichia coli, UniProt P0AES6). In words: Inhibition of Escherichia coli DNA gyrase by supercoiling assay.
The subject of test [4] is Staphylococcus aureus. In words: Inhibition of Staphylococcus aureus topoisomerase-4 assessed as residual activity at 1 uM preincubated for 10 mins followed by ATP addition measured after 30 mins by purine nucleoside phosphorylase enzyme coupled spectrophotometric method relative to control.
The subject of test [5] is Staphylococcus aureus. Kind of test: Growth inhibition of Staphylococcus aureus ATCC 25923 at 50 uM after 24 hrs by broth microdilution method relative to control. It is filed as functional. As to conditions: ATCC 25923, 24 h, read-out: GI.
Test [6] concerns Enterococcus faecalis. Kind of test: Growth inhibition of Enterococcus faecalis ATCC 29212 at 50 uM after 24 hrs by broth microdilution method relative to control. As to conditions: ATCC 29212, 24 h, read-out: GI. It is filed as functional.
In test [7] the test system is Escherichia coli. In words: Inhibition of Escherichia coli C-terminal His6-tagged topoisomerase-4 expressed in Escherichia coli BL21(DE3) assessed as residual activity at 1 uM preincubated for 10 mins followed by ATP addition measured after 30 mins by purine nucleoside phosphorylase enzyme coupled spectrophotometric method relative to control.
Test [8] is described as follows: Inhibition of Staphylococcus aureus topoisomerase-4 assessed as residual activity preincubated for 10 mins followed by ATP addition measured after 30 mins by purine nucleoside phosphorylase enzyme coupled spectrophotometric method.
Test [9] can be described thus: Inhibition of Escherichia coli C-terminal His6-tagged topoisomerase-4 expressed in Escherichia coli BL21(DE3) preincubated for 10 mins followed by ATP addition measured after 30 mins by purine nucleoside phosphorylase enzyme coupled spectrophotometric method.
Test [10] has as its system Escherichia coli. Kind of test: Antibacterial activity against tolC deficient Escherichia coli JW5503 after 18 hrs by broth microdilution method. It is filed as functional. As to conditions: JW5503, 18 h.
Test [11] concerns Escherichia coli. In words: Growth inhibition of tolC deficient Escherichia coli JW5503 at 50 uM after 24 hrs by broth microdilution method relative to control. It is filed as functional. As to conditions: JW5503, 24 h, read-out: GI.
The subject of test [12] is Escherichia coli. Kind of test: Growth inhibition of lpxC deficient Escherichia coli JD17464 at 50 uM after 24 hrs by broth microdilution method relative to control. It is filed as functional. As to conditions: JD17464, 24 h, read-out: GI.
Test [13] concerns the target DNA gyrase subunit B (Staphylococcus aureus, UniProt P0A0K8). In words: Inhibition of Staphylococcus aureus DNA gyrase B preincubated for 10 mins followed by ATP addition measured after 30 mins by purine nucleoside phosphorylase enzyme coupled spectrophotometric method.
For test [14], the system named is Enterococcus faecalis. In words: Antibacterial activity against Enterococcus faecalis ATCC 29212 after 18 hrs by broth microdilution method. It is filed as functional. As to conditions: ATCC 29212, 18 h.

Converted amounts (≈) assume the structure as drawn.

Chain of DNA gyrase subunit B (Staphylococcus aureus, UniProt P0A0K8) (P0A0K8 whole entry): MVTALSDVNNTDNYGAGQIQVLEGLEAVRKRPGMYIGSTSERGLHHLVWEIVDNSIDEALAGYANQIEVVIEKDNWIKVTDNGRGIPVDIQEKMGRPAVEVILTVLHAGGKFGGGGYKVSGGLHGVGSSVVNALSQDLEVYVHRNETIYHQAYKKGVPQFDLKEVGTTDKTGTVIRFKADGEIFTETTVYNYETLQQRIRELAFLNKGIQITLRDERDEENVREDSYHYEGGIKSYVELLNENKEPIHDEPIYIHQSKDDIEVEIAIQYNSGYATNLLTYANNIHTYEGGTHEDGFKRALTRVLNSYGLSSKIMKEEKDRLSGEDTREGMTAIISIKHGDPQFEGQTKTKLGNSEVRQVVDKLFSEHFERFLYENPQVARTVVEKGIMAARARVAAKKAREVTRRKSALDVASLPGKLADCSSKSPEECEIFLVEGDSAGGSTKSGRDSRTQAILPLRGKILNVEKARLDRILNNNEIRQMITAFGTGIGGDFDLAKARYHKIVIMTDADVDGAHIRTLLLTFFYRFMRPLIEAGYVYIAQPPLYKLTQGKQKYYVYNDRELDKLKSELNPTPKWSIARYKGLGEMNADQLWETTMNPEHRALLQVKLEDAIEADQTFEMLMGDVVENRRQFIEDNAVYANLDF

`CC(C)Oc1cc(NC(=O)c2cc(Br)c(Br)[nH]2)ccc1C(=O)NCC(=O)O`: the inhibition of growth at 50 µM in the test with Escherichia coli [1] is 9%; with Pseudomonas aeruginosa, -8%; in the test with Staphylococcus aureus [5] it was 13%; in the test with Enterococcus faecalis [6], 14%. In addition, the Activity in test [2] amounted to 85%; in the test on Staphylococcus aureus [4], 96%. Besides, the IC50 at DNA gyrase subunit B [3] came to 0.4 µM.

As to `O=C(O)CNC(=O)c1ccc(NC(=O)c2cc(Br)c(Br)[nH]2)cc1OCc1ccccc1`, the inhibition of growth at 50 µM is 10% in the test on Escherichia coli [1], -2% in the test on Pseudomonas aeruginosa, 19% with Staphylococcus aureus [5] and 2% in the test on Enterococcus faecalis [6]. Further, the Activity came out at 79% in test [2] and 100% in the test on Escherichia coli [7]. Moreover, the IC50 against DNA gyrase subunit B [3] came to 0.088 µM; in [8], 39 µM.

In the case of `Cc1[nH]c(C(=O)Nc2ccc(C(=O)N[C@@H](C)c3n[nH]c(=O)o3)cc2OCCN)c(Cl)c1Cl`, the inhibition of growth at 50 µM was 1% in the test on Escherichia coli [1]; 16% in the test on Pseudomonas aeruginosa; 0% in the test with Staphylococcus aureus [5]; -6% in the test with Enterococcus faecalis [6]; 88% in the test on Escherichia coli [11]; 13% in the test with Escherichia coli [12]. Besides, the IC50 in [9] amounted to 0.57 µM; on DNA gyrase subunit B [3] it was 0.013 µM; against DNA gyrase subunit B [13], 1 µM; in [8], 0.96 µM. For the same compound, the MIC90 against Escherichia coli [10] stood at 50 µM (≈ 24.2 µg/mL).

On to `Cc1[nH]c(C(=O)Nc2ccc(C(=O)N[C@@H](C)C(=O)O)cc2OC(C)C)c(Cl)c1Cl`, for which the MIC90 was 3.13 µM (≈ 1.38 µg/mL) in the test on Enterococcus faecalis [14] and 50 µM (≈ 22.1 µg/mL) with Escherichia coli [10]. Also, the inhibition of growth at 50 µM in the test on Escherichia coli [1] was 0%; in the test with Pseudomonas aeruginosa, 8%; with Staphylococcus aureus [5], -21%; in the test with Enterococcus faecalis [6], 100%; in the test with Escherichia coli [11] it was 97%; with Escherichia coli [12], -10%. Moreover, the IC50 came out at 0.45 µM in test [9], 0.038 µM against DNA gyrase subunit B [3], 0.093 µM against DNA gyrase subunit B [13] and 0.28 µM in test [8].

For the compound `CC(C)Oc1cc(C(=O)N[C@@H](C)C(=O)O)ccc1NC(=O)c1cc(Br)c(Br)[nH]1`, the inhibition of growth at 50 µM in the test with Escherichia coli [1] was 0%; with Pseudomonas aeruginosa, 10%; in the test on Staphylococcus aureus [5] it was -18%; in the test with Enterococcus faecalis [6], 70%; in the test with Escherichia coli [11], 6%; with Escherichia coli [12], -15%. The IC50 against DNA gyrase subunit B [3] stood at 0.37 µM; at DNA gyrase subunit B [13], 5.9 µM. Moreover, the Activity came to 98% with Staphylococcus aureus [4] and 78% in the test on Escherichia coli [7].

Take `NCCOc1cc(C(=O)N[C@@H](Cc2ccccc2)C(=O)O)ccc1NC(=O)c1cc(Br)c(Br)[nH]1`: the inhibition of growth at 50 µM with Escherichia coli [1] is 5%; with Pseudomonas aeruginosa, 21%; in the test with Staphylococcus aureus [5] it was 20%; with Enterococcus faecalis [6], 34%; with Escherichia coli [11], -6%; in the test on Escherichia coli [12], 9%. Besides, the Activity in test [2] amounted to 89%; in the test with Staphylococcus aureus [4], 98%; in the test with Escherichia coli [7], 96%. Besides, on DNA gyrase subunit B [3], the IC50 came to 0.37 µM.

Turning to `COC(=O)[C@H](C)NC(=O)c1ccc(NC(=O)c2cc(Br)c(Br)[nH]2)c(OC(C)C)c1`, the inhibition of growth at 50 µM came out at 5% in the test on Escherichia coli [1]; 9% in the test on Pseudomonas aeruginosa; 42% in the test with Staphylococcus aureus [5]; 65% in the test with Enterococcus faecalis [6]; 97% with Escherichia coli [11]; 11% in the test with Escherichia coli [12]. Also, the MIC90 with Escherichia coli [10] was 25 µM (≈ 13.3 µg/mL).

Regarding `COC(=O)[C@H](Cc1ccccc1)NC(=O)c1ccc(NC(=O)c2cc(Br)c(Br)[nH]2)c(OCCN)c1`, the figures for the MIC90 against Enterococcus faecalis [14] and against Escherichia coli [10] were 50 µM (≈ 30.4 µg/mL) and 25 µM (≈ 15.2 µg/mL), respectively. Further, the inhibition of growth at 50 µM in the test with Escherichia coli [1] is 9%; in the test with Pseudomonas aeruginosa, 28%; in the test on Staphylococcus aureus [5], 103%; in the test on Enterococcus faecalis [6] it was 102%; in the test with Escherichia coli [11] it was 103%; in the test on Escherichia coli [12] it was 23%.

Source of the values: ChEMBL document CHEMBL4152269, “New N-phenylpyrrolamide DNA gyrase B inhibitors: Optimization of efficacy and antibacterial activity” (Eur J Med Chem, 2018).
